Data from paper PMC5415745, “Drug-transporter mediated interactions between anthelminthic and antiretroviral drugs across the Caco-2 cell monolayers” (BMC Pharmacology & Toxicology, 2017).
Where “and” joins values, the source holds several entries; their conditions need not be identical. Equal entries are not always repeated.

How the values were obtained:
Caco-2 cell monolayers = experiment: Bidirectional (AP→BL, BL→AP) drug transport across Caco-2 cell monolayers in transwells: cumulative transport, Papp, efflux ratio; HPLC or radiolabeled assay; conditions: for Apical to basal transport (cumulative, receiver), Mean / Basal to apical transport (cumulative, receiver), Mean: mean n=3; for Apical to basal transport / Basal to apical transport: individual experiments 1-3
[1] = as above; conditions: human
[2] = 120 min, individual samples 1-3
[3] = 180 min, individual samples 1-3
[4] = 240 min, individual samples 1-3
[5] = labelled drug is the interacting drug
[6] = mean (n=3) after 60 min, drug A alone, or label 'A + B' = transport of A in presence of interacting drug B, concentrations per Table 1
[7] = samples after 60min, individual samples 1-3
[8] = Caco-2, Papp AP → BL, mean (n=3) after 60 min, drug A alone, or label 'A + B' = transport of A in presence of interacting drug B, concentrations per Table 1
[9] = Caco-2, Papp BL → AP, mean (n=3) after 60 min, drug A alone, or label 'A + B' = transport of A in presence of interacting drug B, concentrations per Table 1
[10] = [3H] LPV alone, 60 min, mean, n=3
[11] = [3H] LPV alone, 120 min, mean, n=3
[12] = [3H] LPV alone, 180 min, mean, n=3
[13] = [3H] LPV alone, 240 min, mean, n=3
[14] = [3H] LPV alone, after 60 min, samples 1-3

With `O=C1Nc2ccc(Cl)cc2[C@@](C#CC2CC2)(C(F)(F)F)O1` [EFV, efavirenz] the “Apical to basal transport (cumulative, receiver)” value (Caco-2 cell monolayers; 60 min, individual samples 1-3) was 0.31 pmoles (2×) and 0.32 pmoles, the “Basal to apical transport (cumulative, receiver)” value (Caco-2 cell monolayers; 60 min, individual samples 1-3) was 0.30 pmoles (2×) and 0.25 pmoles and the “Apical to basal transport (cumulative, receiver), Mean” value (Caco-2 cell monolayers; 60 min) was 0.32 pmol. For the same compound, the “Basal to apical transport (cumulative, receiver), Mean” value (Caco-2 cell monolayers; 60 min) was 0.28 pmol, the “Apical to basal transport (cumulative, receiver)” value (Caco-2 cell monolayers; [2]) was 0.61 pmol and 0.54 pmol and 0.55 pmol and the “Basal to apical transport (cumulative, receiver)” value (Caco-2 cell monolayers; [2]) was 0.53 pmol and 0.50 pmol and 0.57 pmol. For the same compound, the “Apical to basal transport (cumulative, receiver), Mean” value (Caco-2 cell monolayers; 120 min) was 0.56 pmol, the “Basal to apical transport (cumulative, receiver), Mean” value (Caco-2 cell monolayers; 120 min) was 0.53 pmol and the “Apical to basal transport (cumulative, receiver)” value (Caco-2 cell monolayers; [3]) was 0.67 pmol and 0.70 pmol and 0.71 pmol. For the same compound, the “Basal to apical transport (cumulative, receiver)” value (Caco-2 cell monolayers; [3]) was 0.69 pmol and 0.65 pmol and 0.70 pmol, the “Apical to basal transport (cumulative, receiver), Mean” value (Caco-2 cell monolayers; 180 min) was 0.69 pmol and the “Basal to apical transport (cumulative, receiver), Mean” value (Caco-2 cell monolayers; 180 min) was 0.68 pmol. The “Apical to basal transport (cumulative, receiver)” value (Caco-2 cell monolayers; [4]) was 0.78 pmol and 0.86 pmol and 0.82 pmol, the “Basal to apical transport (cumulative, receiver)” value (Caco-2 cell monolayers; [4]) was 0.86 pmol and 0.78 pmol and 0.84 pmol and the “Apical to basal transport (cumulative, receiver), Mean” value (Caco-2 cell monolayers; 240 min) was 0.82 pmol. The “Basal to apical transport (cumulative, receiver), Mean” value (Caco-2 cell monolayers; 240 min) was 0.83 pmol, the “Effect on the transport of PZQ” value (Caco-2 cell monolayers; [5]) was “did not affect” and the Papp AP → BL (Caco-2 cell monolayers; [6]) was 16.5 ×10⁻⁶ cm/s. The Papp BL → AP (Caco-2 cell monolayers; [6]) was 10.8 ×10⁻⁶ cm/s, the PappAB Papp (Caco-2 cell monolayers; [7]) was 15.9 ×10⁻⁶ cm/s and 13.5 ×10⁻⁶ cm/s and the PappBA Papp (Caco-2 cell monolayers; [7]) was 9.29 ×10⁻⁶ cm/s and 9.67 ×10⁻⁶ cm/s. The Papp A→B at 60 min [1, 8] was 16.5 ×10⁻⁶ cm/s, the Papp B→A at 60 min [1, 9] was 10.8 ×10⁻⁶ cm/s and the Papp A→B at 60 min ([1]; Caco-2, PappAB, Papp, samples after 60min, individual samples 1-3) was 20 ×10⁻⁶ cm/s. It also gave a Papp B→A at 60 min ([1]; Caco-2, PappBA, Papp, samples after 60min, individual samples 1-3) of 13.4 ×10⁻⁶ cm/s.
In the case of `Cc1cccc(C)c1OCC(=O)N[C@@H](Cc1ccccc1)[C@@H](O)C[C@H](Cc1ccccc1)NC(=O)[C@H](C(C)C)N1CCCNC1=O` [LPV, lopinavir], the “Apical to basal transport” value (Caco-2 cell monolayers; [3H] LPV alone, 60 min) is reported as 0.92 pmol and 0.73 pmol and 0.68 pmol, the “Basal to apical transport” value (Caco-2 cell monolayers; [3H] LPV alone, 60 min) is reported as 4.42 pmol and 4.44 pmol and 5.33 pmol and the “Apical to basal transport Mean” value (Caco-2 cell monolayers; [10]) is reported as 0.78 pmol. For the same compound, the “Basal to apical transport Mean” value (Caco-2 cell monolayers; [10]) was 4.73 pmol, the “Apical to basal transport” value (Caco-2 cell monolayers; [3H] LPV alone, 120 min) was 1.24 pmol and 1.79 pmol and 1.27 pmol and the “Basal to apical transport” value (Caco-2 cell monolayers; [3H] LPV alone, 120 min) was 7.38 pmol and 6.91 pmol and 8.43 pmol. The “Apical to basal transport Mean” value (Caco-2 cell monolayers; [11]) was 1.43 pmol, the “Basal to apical transport Mean” value (Caco-2 cell monolayers; [11]) was 7.57 pmol and the “Apical to basal transport” value (Caco-2 cell monolayers; [3H] LPV alone, 180 min) was 1.93 pmol and 2.34 pmol and 1.52 pmol. The “Basal to apical transport” value (Caco-2 cell monolayers; [3H] LPV alone, 180 min) was 9.01 pmol and 8.46 pmol and 10.62 pmol, the “Apical to basal transport Mean” value (Caco-2 cell monolayers; [12]) was 1.93 pmol and the “Basal to apical transport Mean” value (Caco-2 cell monolayers; [12]) was 9.36 pmol. For the same compound, the “Apical to basal transport” value (Caco-2 cell monolayers; [3H] LPV alone, 240 min) was 2.15 pmol and 2.71 pmol and 1.78 pmol, the “Basal to apical transport” value (Caco-2 cell monolayers; [3H] LPV alone, 240 min) was 11.97 pmol and 11.41 pmol and 12.04 pmol and the “Apical to basal transport Mean” value (Caco-2 cell monolayers; [13]) was 2.21 pmol. The “Basal to apical transport Mean” value (Caco-2 cell monolayers; [13]) was 11.81 pmol, the “PappBA Mean” value (Caco-2 cell monolayers; [3H] LPV alone, after 60 min, mean, n=3) was 32.09 10^9 cm/s and the “Apical to basal transport Conc. Apical” value (Caco-2 cell monolayers; [14]) was 18.43 pmol and 19.89 pmol. For the same compound, the “Basal to apical transport Conc. Basal” value (Caco-2 cell monolayers; [14]) was 14.48 pmol and 17.27 pmol and 21.60 pmol, the “Effect on the transport of IVM” value (Caco-2 cell monolayers; [5]) was “twofold decrease in the efflux ratio” and the Papp A→B at 60 min [1, 8] was 4.8 ×10⁻⁶ cm/s. It also gave a Papp B→A at 60 min [1, 9] of 32.1 ×10⁻⁶ cm/s, a Papp A→B at 60 min ([1]; Caco-2, PappAB Papp, [3H] LPV alone, after 60 min, samples 1-3) of 5.95 ×10⁻⁶ cm/s and a Papp B→A at 60 min ([1]; Caco-2, PappBA Papp, [3H] LPV alone, after 60 min, samples 1-3) of 36.3 ×10⁻⁶ cm/s.
